Entries after “also recorded” stand apart in the source; their conditions may differ. Like-named read-outs stand apart in the source and are kept apart here.
Legend:
PLCγ2-HiBit = target: T1, PLCγ2-HiBit (Homo sapiens, UniProt P16885); test: Cellular thermal shift assay (SplitLuc CETSA), PLCγ2-HiBit in HMC3 cells; format: cell-based; conditions: for PLCγ2-HiBit %, percent luminescence at highest dose compared to control (DMSO): 100 μM
T1 construct: expressed in transfected cells; host or cells: HMC3 cells
T1 sequence (P16885 1-1265): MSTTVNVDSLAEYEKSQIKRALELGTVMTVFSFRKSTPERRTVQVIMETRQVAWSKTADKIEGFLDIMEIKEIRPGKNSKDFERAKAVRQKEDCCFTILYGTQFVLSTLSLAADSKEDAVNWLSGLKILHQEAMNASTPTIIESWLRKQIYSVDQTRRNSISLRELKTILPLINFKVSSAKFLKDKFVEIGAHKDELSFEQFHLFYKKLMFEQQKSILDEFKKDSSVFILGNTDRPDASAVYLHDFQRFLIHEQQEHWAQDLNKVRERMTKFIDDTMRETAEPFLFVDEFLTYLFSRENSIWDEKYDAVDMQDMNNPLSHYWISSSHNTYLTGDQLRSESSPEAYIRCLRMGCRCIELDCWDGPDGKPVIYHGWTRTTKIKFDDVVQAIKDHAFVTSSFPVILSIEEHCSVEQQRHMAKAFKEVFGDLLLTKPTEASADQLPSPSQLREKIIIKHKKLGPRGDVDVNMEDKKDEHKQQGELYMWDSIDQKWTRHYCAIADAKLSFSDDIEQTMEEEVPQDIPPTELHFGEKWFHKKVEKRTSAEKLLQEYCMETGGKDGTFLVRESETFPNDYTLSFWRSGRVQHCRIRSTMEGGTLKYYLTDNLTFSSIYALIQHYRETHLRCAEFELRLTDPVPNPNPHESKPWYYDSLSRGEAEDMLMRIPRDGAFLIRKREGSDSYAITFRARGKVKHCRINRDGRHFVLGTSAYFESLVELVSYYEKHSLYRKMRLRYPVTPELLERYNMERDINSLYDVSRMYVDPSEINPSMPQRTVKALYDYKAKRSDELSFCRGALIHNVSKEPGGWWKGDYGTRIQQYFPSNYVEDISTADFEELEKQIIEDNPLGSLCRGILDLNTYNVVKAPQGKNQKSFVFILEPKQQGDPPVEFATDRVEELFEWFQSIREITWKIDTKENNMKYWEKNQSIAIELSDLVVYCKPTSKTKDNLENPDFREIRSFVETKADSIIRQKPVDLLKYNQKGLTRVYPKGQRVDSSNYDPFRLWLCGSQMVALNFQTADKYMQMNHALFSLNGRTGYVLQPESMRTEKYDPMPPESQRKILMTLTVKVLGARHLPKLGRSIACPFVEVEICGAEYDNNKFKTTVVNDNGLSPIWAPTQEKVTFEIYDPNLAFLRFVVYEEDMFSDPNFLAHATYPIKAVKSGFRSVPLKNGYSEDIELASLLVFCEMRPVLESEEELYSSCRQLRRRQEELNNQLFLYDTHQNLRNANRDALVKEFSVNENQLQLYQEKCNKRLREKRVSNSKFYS
Excerpt: These compounds have been evaluated using a wide variety of assay classes namely target engagement utilizing cellular thermal shift assay (CETSA),^34 affinity selection mass spectrometry (ASMS),^35 biochemical activity employing the fluorogenic probe XY-69,^36 and cellular activity testing for phagocytosis. Cellular Thermal Shift Assays (CETSA) assess cellular target engagement by quantifying changes in protein thermal stability upon ligand binding to endogenous proteins in intact cells.^34 For SAR studies, a split Nano Luciferase (SplitLuc CETSA) version of the assay was utilized to provide sufficient throughput.^37,38 HMC3 cells were stably transfected with PLCγ2-HiBit to enable protein expression in a physiologically relevant cellular context. The thermal stability of this HiBit-labeled protein in intact cells was measured in the following two formats. In the initial screen, using 96-well plates, cells were treated with FBS analogs at a single concentration (100 μM) at 37° C. for 60 min and then exposed to a 3-minute isothermal heating step at 45.9° C. (experimentally determined Tm of PLCγ2-HiBit). Luminescence detection was then conducted with the Nano-Glo HiBit Lytic detection kit (Promega, Cat. N3040).^38 Compound treatment was performed in triplicate, and raw signals were normalized to the mean of the controls (in the same plate) as % of control. When the difference in compound-treated cells >control mean+3SD, the compound was considered positive and selected for further testing with dose-response CETSA. In the dose response CETSA, cells were treated with decreasing concentrations from 100 μM with 1:3 serial dilutions to generate an 8-point curve. An AC50 was calculated with the % of control data using a four-parameter logistic curve regression model, and the percent luminescence remaining at the highest concentration is also reported for the compounds when the difference from the DMSO control is greater than 3× the standard deviation (SD). Otherwise, an AC50 was not calculated.

BV2 cells = test: Microglial phagocytosis/cell health high-content assay, BV2 cells; format: cell-based; conditions: for Ave. % Cell Count @ 60 uM BV2 cells / Ave. % Phagocytosis @ 60 uM BV2 cells: 48 hrs, compared to control; for phagocytosis increase against cell count decline: HMC3 and BV2 cells (Table 6, FIGS. 21, 22); for IC50 / EC50: Mus musculus, BV-2; for IC50: read-out: cell count decrease IC50
Procedure: (§1) The assay introduced here is a simplified cellular imaging assay without any fixation and washing steps, while producing multiparameter measurements with high capacity using a 384-well plate format. The assay procedures include plating cells on day 1, incubating cell plates overnight before treating cells on day 2, adding pHrodo™-myelin/membrane debris to cell plates on day 3, and 20 hr later, staining cell nuclei with Hoechst-33342 for 30 min before performing high-content imaging on day 4. Three selected parameters are measured from cells: 1) mean total fluorescence intensity per cell of pHrodo™-myelin/membrane debris in phagocytosis vesicles to quantify phagocytosis; 2) cell counts per well to quantify treatment effects on proliferation and cell death; and 3) average nuclear intensity to quantify treatment-induced nuclear changes such as in apoptosis. The assay has been used on HMC3 cells (an immortalized human microglial cell line), BV2 cells (an immortalized mouse microglial cell line), and primary microglia isolated from mouse brains. For initial assay attempts, we recommend using HMC3 cells available from the ATCC.
(§2) All collected raw data are normalized to the untreated control with following formula: % of control=100×(X−Min)/(Max−Min). Factors in the formula are: X is raw data from a treated well, Max is an average measurement from pHrodo™-myelin seeded but untreated wells, and Min is an average measurement from no pHrodo™-myelin untreated wells. Normalized data are used for curve fitting that is done with the variable slope (four parameters) using the Prism software.
(§3) To ensure that the measurements reflect the steady state of compound treatment effects and cell health, the assay was set with a total compound treatment time of 48 hr, including pHrodo™-myelin/membrane debris seeding performed 20-24 hr after compound addition. […] Among many available quantitative measurements from the image analysis, we selected three parameters for the assay:
(§4) 1) The mean total intensity of phagocytosis vesicles/cell—to measure phagocytosis. There are multiple parameters generated from the image analysis, including phagocytosis vesicle area, number, and various fluorescence intensity measurements. Comparing these parameters, the total fluorescence intensity of vesicles/cell is the most sensitive one and was chosen for quantifying phagocytosis.
(§5) 2) The total cell counts—to measure overall cell viability, which is affected by proliferation and cell death. We chose to take 4 images/well (with the 10× objective lens) that cover about 50% of the total area of a well in a 384-well plate to represent cell count of the well.
(§6) 3) The average nuclear intensity—to measure drug-induced apoptosis, with high signal indicating nuclear condescension (a sign of early apoptosis) and low signal indicating DNA degradation (a sign of later apoptosis, when activated caspases digest DNA).
(§7) A phenotypic high-content imaging assay with simultaneous measurements of phagocytosis, cell number, and nuclear intensity was used to assess both cellular pharmacology and cell health. Model cell lines BV2 (immortalized mouse microglia, a gift from Dr. Michelle Block's laboratory at IUSM) and HMC3 (immortalized human microglia, obtained from ATCC, CRL-3304) were used to provide adequate throughput. Cells were cultured in DMEM GlutaMax media (ThermoFisher) containing 10% FBS and Pen-Strep in a 37° C. 5% CO2 incubator, plated in Corning Falcon 384 well Optilux Black and clear bottom plates: 400 cells/45 μl/well (BV2 cells), 600 cells/45 μl/well (HMC3 cells) and 2000 cell/45 μl/well (primary cells), and treated with 10× serially diluted compounds (60 μM-3 nM) for 48 hrs at 37° C. […]

HiBit only = test: Cellular thermal shift assay (CETSA), HiBit only control; format: cell-based, human; conditions: for HiBit only %, percent luminescence at highest dose with HiBit only compared to control (DMSO): 100 μM; for HiBit only % @100 μM: Table 1
HMC3 cells = test: Microglial phagocytosis/cell health high-content assay, HMC3 cells; format: cell-based; conditions: for Ave. % Cell Count @ 60 uM HMC3 cells / Ave. % Phagocytosis @ 60 uM HMC3 cells: 48 hrs, compared to control; for EC50: read-out: stimulation of phagocytosis EC50; for IC50: read-out: inhibition of phagocytosis IC50
Procedure: as §1, §2, §3, §4, §5, §6, §7

[1] = Table 1, CETSA dose response, read-out: AC50
[2] = Table 5, 8-point dose response from 100 μM, HMC3 cells, 45.9° C., read-out: AC50, concentration that induced a half-maximum loss of luminesce compared to control
[3] = Homo sapiens, HMC3, 48 h, HMC3 cells, 48 hours treatment

| Compound | PLCγ2-HiBit %, percent luminescence at highest dose compared to control (DMSO) (PLCγ2-HiBit) | PLCy2-HiBit % @100 (PLCγ2-HiBit; Table 1) | AC50 (PLCγ2-HiBit; [1]) | AC50 (PLCγ2-HiBit; [2]) | Ave. % Cell Count @ 60 uM BV2 cells (BV2 cells) | Ave. % Phagocytosis @ 60 uM BV2 cells (BV2 cells) | phagocytosis increase against cell count decline (BV2 cells) | HiBit only %, percent luminescence at highest dose with HiBit only compared to control (DMSO) (HiBit only) | HiBit only % @100 μM (HiBit only) | Ave. % Cell Count @ 60 uM HMC3 cells (HMC3 cells) | Ave. % Phagocytosis @ 60 uM HMC3 cells (HMC3 cells) | IC50 (BV2 cells; BV2 cells, 48 hours treatment) | also measured |
| --- | --- | --- | --- | --- | --- | --- | --- | --- | --- | --- | --- | --- | --- |
| Cc1cccc(NS(=O)(=O)c2c(C)cc(C)cc2C)c1 [Compound 5] | 54% | 54% | > 100 µM | > 100 µM | 45% | 165% | the increase was paired with a sharp cell count decline | 95% | 96% | 78% | 111% | – | – |
| Lipopolysaccharides [LPS, reference compound] | – | – | – | – | – | – | – | – | – | – | – | – | changes in nuclear intensity (BV2 cells; BV2 cells, 48 hr): no nuclear intensity changes up to 10 μg/ml LPS; also recorded: no changes in nuclear intensity; inhibition of cell count IC50 (BV2 cells; BV2 cells, 48 hr): 0.122 µg/mL; stimulation of phagocytosis EC50 (BV2 cells; BV2 cells, 48 hr): 0.255 µg/mL; response (phagocytosis, cell count, nuclear intensity) (HMC3 cells; HMC3 cells, 48 hr): did not respond to LPS treatment |
| Cc1cc(Br)ccc1S(=O)(=O)Nc1cccc(C(F)(F)F)c1 [Compound 10] | 17% | 17% | 57 µM | 57 µM | 1% | 434% | the increase was paired with a sharp cell count decline | 40% | 40% | 11% | 93% | – | – |
| CN1CCN(CCOc2cc(OC3CCOCC3)c3c(Nc4c(Cl)ccc5c4OCO5)ncnc3c2)CC1 [Saracatinib, reference compound] | – | – | – | – | – | – | – | – | – | – | – | 0.833 µM | concentrations showing cell count decreases (BV2 cells; BV2 cells, 48 hours treatment): > 1 µM; EC50 (BV2 cells; BV2 cells, 48 hours treatment, read-out: increased phagocytosis EC50): 0.266 µM; concentrations showing cytotoxicity (HMC3 cells; HMC3 cells, 48 hours treatment): > 10 µM; EC50 (HMC3 cells; HMC3 cells, 48 hours treatment): 0.182 µM; EC50 (HMC3 cells; [3]): < 0.2 µM |
| CC[C@H](Nc1ncnc2[nH]cnc12)c1nc2cccc(F)c2c(=O)n1-c1ccccc1 [Idelalisib, reference compound] | – | – | – | – | – | – | – | – | – | – | – | 22 µM | effect on phagocytosis (BV2 cells; BV2 cells, 48 hours treatment): did not inhibit phagocytosis in BV2 cells, but increased phagocytosis in parallel with decreasing cell counts and increasing nuclear intensity; EC50 (BV2 cells; BV2 cells, 48 hours treatment, 60 μM the maximal dose, read-out: stimulation of phagocytosis EC50): > 60 µM; EC50 (BV2 cells; BV2 cells, 48 hours treatment, read-out: nuclear intensity increase EC50): 4.14 µM; IC50 (HMC3 cells; HMC3 cells, 48 hours treatment): 0.526 µM; IC50 (HMC3 cells; [3]): ~0.5 µM |
| O=S(=O)(Nc1cccc(C(F)(F)F)c1)c1ccc(Cl)cc1Cl [Compound 9] | 32% | 32% | 71 µM | 71 µM | 9% | 581% | the increase was paired with a sharp cell count decline | 38% | 38% | 16% | 281% | – | – |

— patent US20250020635A1, “ASSAY METHODS AND USES THEREOF FOR SCREENING ALZHEIMER'S DISEASE TREATMENT COMPOUNDS” (priority 2023, published 2025)
